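96-well plates; 48 h exposure; 5 concentrations. Endpoints by linear interpolation between flanking doses. Not reached: highest tested concentration assigned. GI50 is the concentration that inhibits growth by half.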 Calls of active or inactive are those of the source. Cut-off read from the data, not from the text of the source: active = GI50 up to about 1.1 µM and inactive = higher. Square brackets hold non-standard residues; d marks the D form. Peptide text beside a SMILES is read from it. * marks the point of attachment. ξ: configuration not given here. ξF = NC(Cc1ccccc1)C(=O)O; Cbz = O=C(OCc1ccccc1)*; Aib = CC(C)(N)C(=O)O
Key:
Assay in all cases: DTP human tumour cell line panel, 48 h
SK-MEL-28 = system: SK-MEL-28
LOX IMVI = system: LOX IMVI
CAKI-1 = system: CAKI-1
HCT-116 = system: HCT-116
CCRF-CEM = system: CCRF-CEM
HCT-15 = system: HCT-15
SW-620 = system: SW-620
OVCAR-8 = system: OVCAR-8
786-0 = system: 786-0
NCI/ADR-RES = system: NCI/ADR-RES
UO-31 = system: UO-31
ACHN = system: ACHN
IGROV-1 = system: IGROV-1
MDA-MB-435 = system: MDA-MB-435
SK-OV-3 = system: SK-OV-3
A549 = system: A549
OVCAR-4 = system: OVCAR-4
TK-10 = system: TK-10
MOLT-4 = system: MOLT-4
SR = system: SR

SMILES | GI50 (SK-MEL-28) | GI50 (LOX IMVI) | GI50 (CAKI-1) | GI50 (HCT-116) | GI50 (CCRF-CEM) | GI50 (HCT-15) | GI50 (SW-620) | GI50 (OVCAR-8) | GI50 (786-0) | GI50 (NCI/ADR-RES) | GI50 (UO-31) | GI50 (ACHN) | GI50 (IGROV-1) | GI50 (MDA-MB-435) | GI50 (SK-OV-3) | GI50 (A549) | GI50 (OVCAR-4) | GI50 (TK-10) | GI50 (MOLT-4) | GI50 (SR)
CCOC(=O)c1c2c(n(-c3ccc(OC)cc3)c1C)C(=O)C(=O)c1ccccc1-2 | 2.12 µM (inactive) | 0.789 µM (active) | 1.42 µM (inactive) | 1.33 µM (inactive) | 1.27 µM (inactive) | 3.65 µM | 1.24 µM (inactive) | 0.687 µM (active) | 1.87 µM (inactive) | 0.869 µM (active) | 2.12 µM (inactive) | 1.14 µM (inactive) | 2.52 µM (inactive) | 0.19 µM (active) | 2.38 µM (inactive) | 1.51 µM (inactive) | 0.624 µM (active) | 1.72 µM (inactive) |  | 
COc1cc2c3c(c1OC)C(=O)C=C3N(S(=O)(=O)c1ccc(C)cc1)CC2 | > 100 µM (inactive) | > 100 µM (inactive) | 52.6 µM (inactive) | > 100 µM (inactive) | > 100 µM (inactive) | > 100 µM | > 100 µM (inactive) | > 100 µM (inactive) | 21.3 µM (inactive) |  | > 100 µM (inactive) | 75.9 µM (inactive) | > 100 µM (inactive) |  | > 100 µM (inactive) | > 100 µM (inactive) | 65.8 µM (inactive) | > 100 µM (inactive) | > 100 µM (inactive) | > 100 µM (inactive)
CN1C(=O)c2cccc3c([N+](=O)[O-])ccc(c23)C1=O | 18.8 µM (inactive) | 6.12 µM (inactive) | 2.45 µM (inactive) | 6.52 µM (inactive) | 7.24 µM (inactive) | 2.84 µM | 2.43 µM (inactive) | 6.01 µM (inactive) | 8.85 µM (inactive) |  | 13.7 µM (inactive) | 10.1 µM (inactive) | 3.49 µM (inactive) |  | 14.7 µM (inactive) | 12.7 µM (inactive) | 13 µM (inactive) | 3.86 µM (inactive) | 5.55 µM (inactive) | 3.25 µM (inactive)
C#CCSc1nc(N)c2ncn(C3OC(COP(=O)(O)O)C(O)C3O)c2n1 (stereo not given) | > 239 µM (inactive) | > 239 µM (inactive) | > 239 µM (inactive) | > 239 µM (inactive) | > 239 µM (inactive) | > 239 µM | > 239 µM (inactive) | > 239 µM (inactive) | > 239 µM (inactive) |  | > 239 µM (inactive) | > 239 µM (inactive) | > 239 µM (inactive) |  | > 239 µM (inactive) | > 239 µM (inactive) | > 239 µM (inactive) | > 239 µM (inactive) | > 239 µM (inactive) | > 239 µM (inactive)
CCOC(=O)C1=C(O)C(=O)c2cc(OC)ccc2C1=O | > 100 µM (inactive) | 55.2 µM (inactive) | > 100 µM (inactive) | 95.5 µM (inactive) | > 100 µM (inactive) | > 100 µM | > 100 µM (inactive) | > 100 µM (inactive) | > 100 µM (inactive) |  | 63 µM (inactive) | > 100 µM (inactive) | > 100 µM (inactive) |  | > 100 µM (inactive) | 96.2 µM (inactive) | > 100 µM (inactive) | > 100 µM (inactive) | > 100 µM (inactive) | > 100 µM (inactive)
CCOC(=O)NC(=O)c1cn(CCN2CCNCC2)c(=O)[nH]c1=O | > 100 µM (inactive) | > 100 µM (inactive) | > 100 µM (inactive) | > 100 µM (inactive) | > 100 µM (inactive) | > 100 µM | > 100 µM (inactive) | > 100 µM (inactive) | > 100 µM (inactive) |  |  | > 100 µM (inactive) | > 100 µM (inactive) |  | > 100 µM (inactive) | > 100 µM (inactive) | > 100 µM (inactive) | > 100 µM (inactive) | > 100 µM (inactive) | > 100 µM (inactive)
C[N+]1(C)C/C(=C\c2ccc(O)cc2)C(=O)/C(=C/c2ccc(O)cc2)C1 | > 100 µM (inactive) | 56.8 µM (inactive) | > 100 µM (inactive) | 34 µM (inactive) | 23.7 µM (inactive) | 60.1 µM | > 100 µM (inactive) | 48.2 µM (inactive) | > 100 µM (inactive) |  | > 100 µM (inactive) | > 100 µM (inactive) | > 100 µM (inactive) |  | > 100 µM (inactive) | 37.5 µM (inactive) | > 100 µM (inactive) | 18 µM (inactive) | 47.4 µM (inactive) | 82.4 µM (inactive)
CC1CC(N2CCOCC2)=Nc2ccccc2N1C (stereo not given) | > 100 µM (inactive) |  | > 100 µM (inactive) | > 100 µM (inactive) | > 100 µM (inactive) | > 100 µM | > 100 µM (inactive) | > 100 µM (inactive) | > 100 µM (inactive) | > 100 µM (inactive) | > 100 µM (inactive) | > 100 µM (inactive) | > 100 µM (inactive) | > 100 µM (inactive) | > 100 µM (inactive) | > 100 µM (inactive) | > 100 µM (inactive) | > 100 µM (inactive) | 95.5 µM (inactive) | 
Cc1cn(C2CC(CCCO)C(CO)O2)c(=O)[nH]c1=O (stereo not given) | > 100 µM (inactive) | > 100 µM (inactive) | > 100 µM (inactive) | > 100 µM (inactive) |  | > 100 µM | > 100 µM (inactive) | > 100 µM (inactive) | > 100 µM (inactive) |  | > 100 µM (inactive) | > 100 µM (inactive) | > 100 µM (inactive) |  | > 100 µM (inactive) | > 100 µM (inactive) | > 100 µM (inactive) | > 100 µM (inactive) |  | > 100 µM (inactive)
N#CC(C#N)=c1c2ccccc2c(=C(C#N)C#N)c2ccccc12 | 17.7 µM (inactive) | 17.8 µM (inactive) | 14.9 µM (inactive) | 17.8 µM (inactive) | 7.46 µM (inactive) | 43.3 µM | 24.8 µM (inactive) | 20.1 µM (inactive) | 14.9 µM (inactive) | 25.6 µM (inactive) |  | 20 µM (inactive) | 12.8 µM (inactive) | 18.4 µM (inactive) | 25.1 µM (inactive) | 31 µM (inactive) |  |  | 7.76 µM (inactive) | 
Cc1ccc(/C=C(\C#N)c2ccccc2)cc1 | > 100 µM (inactive) | > 100 µM (inactive) | > 100 µM (inactive) | > 100 µM (inactive) | > 100 µM (inactive) | > 100 µM | > 100 µM (inactive) | > 100 µM (inactive) | > 100 µM (inactive) |  | > 100 µM (inactive) | > 100 µM (inactive) | > 100 µM (inactive) |  | > 100 µM (inactive) |  | > 100 µM (inactive) | > 100 µM (inactive) | > 100 µM (inactive) | > 100 µM (inactive)
Cc1cc(C)nc(NS(=O)(=O)c2ccc(Nc3c4ccccc4nc4c(C(=O)N5CCN(CCO)CC5)cccc34)cc2)n1 | > 100 µM (inactive) | > 100 µM (inactive) | > 100 µM (inactive) | > 100 µM (inactive) | > 100 µM (inactive) | > 100 µM | > 100 µM (inactive) | > 100 µM (inactive) | > 100 µM (inactive) |  | > 100 µM (inactive) | > 100 µM (inactive) | > 100 µM (inactive) |  | > 100 µM (inactive) | > 100 µM (inactive) | > 100 µM (inactive) | > 100 µM (inactive) | > 100 µM (inactive) | > 100 µM (inactive)
CC(C)N(C(=O)C12C3C4C1C1C4(C#N)C3C12C(=O)O)C(C)C (stereo not given) | > 100 µM (inactive) | > 93.8 µM (inactive) | > 100 µM (inactive) | > 52.8 µM (inactive) | > 48.4 µM (inactive) | > 44.7 µM | > 60.3 µM (inactive) | > 86.9 µM (inactive) | > 100 µM (inactive) |  | > 100 µM (inactive) | > 100 µM (inactive) | > 100 µM (inactive) |  | > 100 µM (inactive) | 97.9 µM (inactive) | > 100 µM (inactive) | > 100 µM (inactive) | > 100 µM (inactive) | 16.8 µM (inactive)
CN(C)CC/C(=N\Nc1c(F)c(F)c(F)c(F)c1F)c1ccccc1 | > 100 µM (inactive) | 32.7 µM (inactive) |  | 86.9 µM (inactive) | 21.2 µM (inactive) | 35.3 µM | 74.8 µM (inactive) | 93.3 µM (inactive) | 82.4 µM (inactive) |  | 7.38 µM (inactive) | 30.9 µM (inactive) | 22.2 µM (inactive) |  | 3.32 µM (inactive) | 31.6 µM (inactive) | 16.9 µM (inactive) | 62.7 µM (inactive) | 19.2 µM (inactive) | 17.6 µM (inactive)
C[C@H]1[C@H](C)CC[C@]2(C(=O)O)CCC3(COC(=O)/C=C/c4ccc(O)cc4)C(=CCC4[C@@]5(C)CC[C@H](O)C(C)(C)C5CC[C@]43C)[C@H]12 (stereo not given in full) | 10.8 µM (inactive) | 5.24 µM (inactive) | 2.85 µM (inactive) | 3.62 µM (inactive) | 3.84 µM (inactive) | 4.62 µM | 3.36 µM (inactive) | 4.51 µM (inactive) | 5.16 µM (inactive) |  | 4.82 µM (inactive) | 2.69 µM (inactive) | 3.46 µM (inactive) |  | 1.63 µM (inactive) | 2.61 µM (inactive) | 5.96 µM (inactive) | 10.5 µM (inactive) | 3.52 µM (inactive) | 3.91 µM (inactive)
CC(C)(NC(=O)OCc1ccccc1)C(=O)NC(Cc1ccccc1)C(=O)O (stereo not given) (Cbz-[Aib]-[ξF]-OH) | > 100 µM (inactive) | > 100 µM (inactive) | > 100 µM (inactive) | > 100 µM (inactive) | > 100 µM (inactive) | > 100 µM | > 100 µM (inactive) | > 100 µM (inactive) | > 100 µM (inactive) | > 100 µM (inactive) | > 100 µM (inactive) |  | > 100 µM (inactive) | > 100 µM (inactive) | > 100 µM (inactive) | > 100 µM (inactive) | > 100 µM (inactive) |  | > 100 µM (inactive) | 
